In ChEMBL document CHEMBL1201862, “PubChem BioAssay data set” (2004):
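Briefly, cells in 96-well plates were exposed to five compound concentrations for 48 h, and endpoints were estimated by linear interpolation. GI50 is the concentration that inhibits growth by half.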 Activity calls are given as the source filed them. Cut-off read from the data, not from the text of the source: active = GI50 up to about 1.1 µM and inactive = higher.

Assays:
Test in all cases: NCI-60 cell line screen, 48 h
[1] = system: A498
[2] = system: SK-MEL-5
[3] = system: CAKI-1
[4] = system: T47D
[5] = system: HCC 2998
[6] = system: RPMI-8226
[7] = system: M14
[8] = system: SK-MEL-28
[9] = system: TK-10
[10] = system: BT-549
[11] = system: UACC-257
[12] = system: NCI-H23
[13] = system: PC-3
[14] = system: OVCAR-4
[15] = system: MCF7
[16] = system: NCI-H460
[17] = system: NCI/ADR-RES
[18] = system: SF-295
[19] = system: COLO 205
[20] = system: CCRF-CEM
[21] = system: HL-60
[22] = system: SK-OV-3
[23] = system: EKVX
[24] = system: MDA-MB-435
[25] = system: KM12
[26] = system: ACHN
[27] = system: SNB-75
[28] = system: SF-539
[29] = system: 786-0
[30] = system: SNB-19
[31] = system: SR
[32] = system: K562
[33] = system: U-251
[34] = system: SK-MEL-2
[35] = system: Hs-578T
[36] = system: MOLT-4
[37] = system: RXF 393
[38] = system: LOX IMVI
[39] = system: HCT-15
[40] = system: IGROV-1
[41] = system: HCT-116
[42] = system: MDA-MB-231
[43] = system: NCI-H226
[44] = system: SF-268
[45] = system: OVCAR-8
[46] = system: HT-29
[47] = system: UACC-62
[48] = system: HOP-62
[49] = system: SW-620
[50] = system: HOP-92
[51] = system: DU-145
[52] = system: OVCAR-5
[53] = system: UO-31
[54] = system: NCI-H522
[55] = system: MDA-N
[56] = system: A549
[57] = system: OVCAR-3
[58] = system: SN12C
[59] = system: Malme-3M

With `C[C@H](CCC(=O)O)[C@H]1CC[C@H]2[C@@H]3CC[C@@H]4C[C@H](O)CC[C@]4(C)[C@H]3CC[C@]12C` [LITHOCHOLIC ACID] the GI50 [1] was > 100 µM (inactive).

In the case of `CC1=NN(c2nc(N)nc(CSc3nc4n(c(=S)n3)CCN4)n2)C(C)(C)C1`, the GI50 [2] is reported as > 100 µM (inactive), the GI50 [3] is reported as 25.2 µM (inactive) and the GI50 [4] is reported as 21.7 µM (inactive). The GI50 [5] was > 100 µM (inactive), the GI50 [6] was > 100 µM (inactive) and the GI50 [7] was 67.9 µM (inactive). For the same compound, the GI50 [8] was > 100 µM (inactive), the GI50 [9] was 74.1 µM (inactive) and the GI50 [10] was > 100 µM (inactive). The GI50 [11] was > 100 µM (inactive), the GI50 [12] was 47.5 µM (inactive) and the GI50 [13] was 30.1 µM (inactive). For the same compound, the GI50 [14] was > 100 µM (inactive), the GI50 [15] was 51.5 µM (inactive) and the GI50 [16] was > 100 µM (inactive). The GI50 [17] was 30.1 µM (inactive), the GI50 [18] was 22.9 µM (inactive) and the GI50 [19] was 38.5 µM (inactive). For the same compound, the GI50 [20] was > 100 µM (inactive), the GI50 [21] was > 100 µM (inactive) and the GI50 [22] was 19.1 µM (inactive). The GI50 [23] was 27.4 µM (inactive), the GI50 [24] was > 100 µM (inactive) and the GI50 [25] was > 100 µM (inactive). The GI50 [26] was 44.9 µM (inactive), the GI50 [27] was 15.3 µM (inactive) and the GI50 [28] was 44.8 µM (inactive). For the same compound, the GI50 [29] was 93.5 µM (inactive), the GI50 [30] was 37.9 µM (inactive) and the GI50 [31] was > 100 µM (inactive). The GI50 [32] was > 100 µM (inactive), the GI50 [33] was 37.9 µM (inactive) and the GI50 [34] was 16.8 µM (inactive). For the same compound, the GI50 [35] was 15.6 µM (inactive), the GI50 [36] was > 100 µM (inactive) and the GI50 [37] was 15.6 µM (inactive). For the same compound, the GI50 [38] was 43.6 µM (inactive), the GI50 [39] was 32 µM and the GI50 [40] was 15.1 µM (inactive). The GI50 [41] was > 100 µM (inactive), the GI50 [42] was 29.6 µM (inactive) and the GI50 [43] was 15 µM (inactive). For the same compound, the GI50 [44] was 15.3 µM (inactive), the GI50 [45] was 18.3 µM (inactive) and the GI50 [46] was > 100 µM (inactive). For the same compound, the GI50 [47] was 43.1 µM (inactive), the GI50 [48] was 14 µM (inactive) and the GI50 [49] was > 100 µM (inactive). For the same compound, the GI50 [1] was 39.7 µM (inactive) and the GI50 [50] was 18.6 µM (inactive).

`CN1C[C@H]2[C@@H](C1=O)[C@H](c1ccccc1)ON2C` was tested, and the GI50 [2] was > 100 µM (inactive), the GI50 [3] was > 100 µM (inactive) and the GI50 [51] was > 100 µM (inactive). The GI50 [4] was > 100 µM (inactive), the GI50 [5] was > 100 µM (inactive) and the GI50 [6] was > 100 µM (inactive). For the same compound, the GI50 [7] was > 100 µM (inactive), the GI50 [8] was > 100 µM (inactive) and the GI50 [9] was > 100 µM (inactive). The GI50 [11] was > 100 µM (inactive), the GI50 [12] was > 100 µM (inactive) and the GI50 [13] was > 100 µM (inactive). The GI50 [14] was > 100 µM (inactive), the GI50 [15] was > 100 µM (inactive) and the GI50 [16] was > 100 µM (inactive). For the same compound, the GI50 [17] was > 100 µM (inactive), the GI50 [52] was > 100 µM (inactive) and the GI50 [18] was > 100 µM (inactive). The GI50 [19] was > 100 µM (inactive), the GI50 [53] was > 100 µM (inactive) and the GI50 [20] was > 100 µM (inactive). For the same compound, the GI50 [54] was > 100 µM (inactive), the GI50 [21] was > 10 µM (inactive) and the GI50 [22] was > 100 µM (inactive). The GI50 [24] was > 100 µM (inactive), the GI50 [26] was > 100 µM (inactive) and the GI50 [27] was > 100 µM (inactive). For the same compound, the GI50 [30] was > 100 µM (inactive), the GI50 [31] was > 100 µM (inactive) and the GI50 [32] was > 100 µM (inactive). For the same compound, the GI50 [33] was > 100 µM (inactive), the GI50 [34] was > 100 µM (inactive) and the GI50 [55] was > 100 µM (inactive). For the same compound, the GI50 [56] was > 100 µM (inactive), the GI50 [35] was > 100 µM (inactive) and the GI50 [36] was > 100 µM (inactive). The GI50 [38] was > 100 µM (inactive), the GI50 [39] was over 100 µM and the GI50 [40] was > 100 µM (inactive). The GI50 [41] was > 100 µM (inactive), the GI50 [42] was > 100 µM (inactive) and the GI50 [43] was > 100 µM (inactive). The GI50 [57] was > 100 µM (inactive), the GI50 [45] was > 100 µM (inactive) and the GI50 [46] was > 100 µM (inactive). For the same compound, the GI50 [48] was > 100 µM (inactive), the GI50 [49] was > 100 µM (inactive) and the GI50 [58] was > 100 µM (inactive). For the same compound, the GI50 [50] was 59.2 µM (inactive).

`C[C@@H]1O[C@@H](O[C@H]2C[C@@H](O)[C@]3(CO)[C@H]4[C@H](O)C[C@]5(C)[C@@H](C6=CC(=O)OC6)CC[C@]5(O)[C@@H]4CC[C@]3(O)C2)[C@H](O)[C@H](O)[C@H]1O` [OUABAIN] was tested, and the GI50 [20] was 21.1 µM (inactive) and the GI50 [27] was 0.0162 µM (active).

In the case of `O=C1CSC2=NC3=C(CSC/C3=C\c3ccccc3)C(c3ccccc3)N12` (stereo not given), the GI50 [2] is reported as 52.1 µM (inactive), the GI50 [51] is reported as > 100 µM (inactive) and the GI50 [4] is reported as 52.2 µM (inactive). For the same compound, the GI50 [5] was > 100 µM (inactive), the GI50 [6] was 31.1 µM (inactive) and the GI50 [7] was 41.5 µM (inactive). For the same compound, the GI50 [8] was > 100 µM (inactive), the GI50 [9] was > 100 µM (inactive) and the GI50 [11] was > 100 µM (inactive). The GI50 [12] was 62.1 µM (inactive), the GI50 [59] was > 100 µM (inactive) and the GI50 [13] was 28.1 µM (inactive). For the same compound, the GI50 [14] was > 100 µM (inactive), the GI50 [15] was 33.3 µM (inactive) and the GI50 [16] was 81.3 µM (inactive). The GI50 [17] was > 100 µM (inactive), the GI50 [52] was > 100 µM (inactive) and the GI50 [18] was > 100 µM (inactive). For the same compound, the GI50 [19] was > 100 µM (inactive), the GI50 [53] was 24.9 µM (inactive) and the GI50 [20] was 33.8 µM (inactive). For the same compound, the GI50 [21] was 32.2 µM (inactive), the GI50 [22] was > 100 µM (inactive) and the GI50 [23] was > 100 µM (inactive). For the same compound, the GI50 [24] was 65.5 µM (inactive), the GI50 [25] was 70.3 µM (inactive) and the GI50 [26] was 57.5 µM (inactive). The GI50 [27] was 29.6 µM (inactive), the GI50 [28] was > 100 µM (inactive) and the GI50 [29] was > 100 µM (inactive). For the same compound, the GI50 [31] was 65.3 µM (inactive), the GI50 [32] was 39.4 µM (inactive) and the GI50 [33] was 39.8 µM (inactive). For the same compound, the GI50 [34] was > 100 µM (inactive), the GI50 [55] was 32.6 µM (inactive) and the GI50 [56] was 50.6 µM (inactive). For the same compound, the GI50 [35] was > 100 µM (inactive), the GI50 [36] was 53.5 µM (inactive) and the GI50 [38] was 44.5 µM (inactive). The GI50 [39] was over 100 µM, the GI50 [40] was > 100 µM (inactive) and the GI50 [41] was 50.2 µM (inactive). The GI50 [42] was > 100 µM (inactive), the GI50 [43] was > 100 µM (inactive) and the GI50 [57] was 88.9 µM (inactive). For the same compound, the GI50 [44] was > 100 µM (inactive), the GI50 [45] was 86.5 µM (inactive) and the GI50 [46] was 95.5 µM (inactive). For the same compound, the GI50 [47] was > 100 µM (inactive), the GI50 [48] was > 100 µM (inactive) and the GI50 [49] was 84.9 µM (inactive). For the same compound, the GI50 [58] was 92.9 µM (inactive) and the GI50 [50] was 46 µM (inactive).
